Laboratory results reported in patent US10653747B2, “ApoE mimetic peptides and higher potency to clear plasma cholesterol” (UAB RESEARCH FOUNDATION, priority 2014, dated 2020).
Ahx = NCCCCCC(=O)O

Experiments:
[1] = system: MEF 1 cells with induced LDL receptors; assay: Uptake and degradation of human LDL by cells (LDL internalization, LDL degradation); assay type: cell-based
Text: (§1) To test the hypothesis that a minimal arginine-rich Apo E receptor binding domain (141-150) was sufficient to enhance low density lipoprotein (LDL) and very low density lipoprotein (VLDL) uptake and clearance when covalently linked to a class A amphipathic helix, a peptide was synthesized in which the receptor binding domain of human Apo E, LRKLRKRLLR (SEQ ID NO:4) (hApo E[141-150] also referred to as “hE”), was linked to 18A, a well characterized high affinity lipid-associating peptide (DWLKAFYDKVAEKLKEAF (SEQ ID NO:5), also referred to as “18A”) to produce a peptide denoted as hApo E[141-150]-18A (also referred to as “hE-18A”) (see U.S. Pat. No. 6,506,880, which is hereby incorporated by reference in its entirety for its teaching of specific Apo E mimetics and their uses). Also synthesized was an end protected analog of hE-18A, denoted Ac-hE18A-NH2. […] The effect of the dual character peptides on the uptake and degradation of human LDL/VLDL by cells was then determined.
(§2) It was determined that in MEF 1 cells with induced LDL receptors, LDL internalization was enhanced three, five and seven times by Ac-mE-18A-NH2, Ac-hE-18A-NH2, and Ac-hE(R)-18A-NH2 respectively. […]

[2] = system: cells; assay: Uptake and degradation of peptide-associated VLDL by cells; assay type: cell-based; conditions: peptide-associated VLDL compared to VLDL alone, in the absence of apoE
Text: as §1, §2

[3] = system: VLDL; assay: Interaction of peptide with VLDL, displacement of apo E from VLDL
Description: It was determined that in MEF 1 cells with induced LDL receptors, LDL internalization was enhanced three, five and seven times by Ac-mE-18A-NH2, Ac-hE-18A-NH2, and Ac-hE(R)-18A-NH2 respectively. All three peptides increased degradation of LDL by 100 percent. […] However, only Ac-hE-18A-NH2-associated VLDL enhanced the uptake of VLDL six fold and degradation three fold compared to VLDL alone in spite of the absence of apoE. The LDL binding to fibroblasts in the presence of these peptides was not saturable, however, over the LDL concentration range studied.

[4] = system: plasma cholesterol; assay: Plasma cholesterol reduction in apoE null mice after a single dose; assay type: in vivo; conditions: single dose in saline vehicle, at both 50 and 100 μg/mouse
Description: The study was carried out in apoE null mice (n=4 animals/group). The time points show the plasma cholesterol levels at the indicated times following a single dose administration. A single dose was administered using a saline vehicle.

Substance	LDL internalization enhanced [1]	increased degradation of LDL [1]	enhanced degradation of VLDL [2]	enhanced uptake of VLDL [2]	displacement of apo E from VLDL [3]	reducing plasma cholesterol [4]
Ac-LRKLRKRLLRDWLKAFYDKVAEKLKEAF-NH2 [Ac-hE-18A-NH2]	five	100%	three	six	interacted with VLDL to cause a displacement of apo E from VLDL	
Ac-D-W-L-K-A-F-Y-D-K-V-A-E-K-L-K-E-A-F-NH2 (Ac-DWLKAFYDKVAEKLKEAF-NH2) [Ac-18A-NH2, control peptide; 18A is the lipid-associating peptide …, reference compound]					interacted with VLDL to cause a displacement of apo E from VLDL	
Ac-Aha-LRRLRRRLLR-DWLKAFYDKVAEKLKEAF-NH2 ({Ac-Ahx}-LRRLRRRLLRDWLKAFYDKVAEKLKEAF-NH2; SMILES CC(=O)NCCCCCC(=O)N[C@@H](CC(C)C)C(=O)N[C@@H](CCCNC(=N)N)C(=O)N[C@@H](CCCNC(=N)N)C(=O)N[C@@H](CC(C)C)C(=O)N[C@@H](CCCNC(=N)N)C(=O)N[C@@H](CCCNC(=N)N)C(=O)N[C@@H](CCCNC(=N)N)C(=O)N[C@@H](CC(C)C)C(=O)N[C@@H](CC(C)C)C(=O)N[C@@H](CCCNC(=N)N)C(=O)N[C@@H](CC(=O)O)C(=O)N[C@@H](Cc1c[nH]c2ccccc12)C(=O)N[C@@H](CC(C)C)C(=O)N[C@@H](CCCCN)C(=O)N[C@@H](C)C(=O)N[C@@H](Cc1ccccc1)C(=O)N[C@@H](Cc1ccc(O)cc1)C(=O)N[C@@H](CC(=O)O)C(=O)N[C@@H](CCCCN)C(=O)N[C@H](C(=O)N[C@@H](C)C(=O)N[C@@H](CCC(=O)O)C(=O)N[C@@H](CCCCN)C(=O)N[C@@H](CC(C)C)C(=O)N[C@@H](CCCCN)C(=O)N[C@@H](CCC(=O)O)C(=O)N[C@@H](C)C(=O)N[C@@H](Cc1ccccc1)C(N)=O)C(C)C) [AC-Aha-[R]hE18A-NH2]						highly effective
